Data reported in PMC7179302, “Lead Optimization of Dehydroemetine for Repositioned Use in Malaria” (Antimicrobial Agents and Chemotherapy, 2020).
Where a name gives a salt, the structure may show the parent alone.

How the values were obtained:
Format in all cases: cell-based
[1] = system: K1 strain of P. falciparum; experiment: IC50 determination against K1 strain of P. falciparum, SYBR green-based assay, 72 h; conditions: Plasmodium falciparum, K1, 72 h, read-out: IC50 against K1 strain of P. falciparum
Protocol: Based on the anecdotal evidence, two synthetic analogues of emetine dihydrochloride, (−)-R,S-dehydroemetine and (−)-S,S-dehydroisoemetine, were synthesized. Experiments to test drug efficacy were set up, and (−)-R,S-dehydroemetine was tested in 2-fold serial dilutions from 12.5 nM to 200 nM. A dose-response experiment was set up on synchronized ring stage cultures of the K1 strain of P. falciparum to be read at 72 h. […] (−)-S,S-dehydroisoemetine was tested in 2-fold serial dilutions from 0.625 μM to 10 μM. […]
Ring stage parasites were diluted to 0.5 to 1% parasitemia, 2.5% hematocrit (in a 96-well-plate format, 200-μl final well volume) and treated for 72 h. Dose-response parasitemia was determined using the SYBR green-based flow cytometer or plate reader method previously optimized in the laboratory ([14]).
Following drug efficacy experiments, 150-μl amounts from the control and drug-treated wells on a 96-well plate were transferred to microcentrifuge tubes, and samples were washed once with phosphate-buffered saline (PBS). […] Parasitemia was determined by measuring SYBR green fluorescence using the FITC channel of the BD FACSVerse flow cytometer system (blue laser; excitation laser line, 488 nm, with excitation maximum of 494 nm and emission maximum of […]) and cell size (forward scatter [FSC-A]). Fifty thousand events were recorded, in three replicates for each. […]

HepG2 cells = experiment: MTT assay for cell cytotoxicity against HepG2 cells; conditions: for LD50 (50% lethal dose), MTT assay: HepG2 cells, 48 h, ± SD
Protocol: HepG2 cells (University of Salford stocks, purchased from American Type Culture Collection [ATCC], USA), were grown in medium consisting of RPMI 1640, 2 mM L-glutamine, HEPES, 10% fetal bovine serum, 1% nonessential amino acids, and 1% penicillin-streptomycin. Cells were calculated on a hemocytometer to make a new cell-medium solution to a concentration of 5,000 cells/100 μl, and 100 μl of this new cell solution was added into each well of the 96-well plate. After 24 h of incubation, 100-μl amounts of the drug prepared in the medium were added to the wells. This was repeated in triplicate, and the plate was incubated for a further 48 h ([56]). After the incubation period, 50 μl of MTT solution was added to each well and incubated for 3 h. The liquid in each well was aspirated carefully, 200 μl of DMSO was added to each well, and the results were read on the Ascent plate reader.

[2] = system: P. falciparum strain 3D7A; experiment: 3H-hypoxanthine incorporation assay, strain 3D7A; conditions: Plasmodium falciparum, read-out: IC50 (μM) 3D7A
Protocol: The cross-resistance assay used relies on the parasites’ incorporation of labeled 3H-hypoxanthine, which is proportional to P. falciparum growth. In vitro cross-resistance of the compounds is measured as the ratio between the IC50 for the tested P. falciparum strain and the IC50 for strain 3D7A. Every replicate from a multidrug-resistant (MDR) strain involved a simultaneous determination using a 3D7A replicate to avoid any artifact linked to experimental conditions.
The three strains used for the cross-resistance assay were 3D7A, Dd2, and W2, based on their resistance profiles; the assay was carried out by GSK, Tres Cantos. Strain 3D7A is chloroquine sensitive, strain Dd2 is resistant to chloroquine, mefloquine, and pyrimethamine ([57]), and strain W2 is resistant to chloroquine, quinine, pyrimethamine, cycloguanil, and sulfadoxine (from the Malaria Research and Reference Reagent Resource Center [MR4]) ([58]). A culture of red blood cells (RBCs) parasitized by the corresponding strain (0.5% parasitemia, 2% hematocrit) in RPMI 1640, […], and 5 μM hypoxanthine was exposed to 9 dilutions (3-fold serial dilutions) of the compound starting at 5 μM. One hundred microliters of culture volume was plated in 96-well flat-bottom microtiter plates with 0.5 μl drug (200× stock in DMSO). Plates were incubated for 24 h at 37°C, 5% CO2, 5% O2, 90% N2. Next, 3H-hypoxanthine was added and plates were incubated for another 24-h period. After that, parasites were harvested on a glass fiber filter using a TomTec cell harvester 96. Filters were dried, and melt-on scintillator sheets were used to determine the incorporation of 3H-hypoxanthine. Radioactivity was measured using a MicroBeta counter. […] IC50 values were determined using the Grafit 7 program ([41]).

Compound: CCC1=C(C[C@H]2NCCc3cc(OC)c(OC)cc32)C[C@H]2c3cc(OC)c(OC)cc3CCN2C1 [(−)-R,S-dehydroemetine, (S)-2-((R)-6,7-dimethoxy-1,2,3,4-tetrahydro-isoquinolin-1-ylmethyl)-3-ethyl-9,10-dimethoxy-1,6,7,11b-tetrahydro-4H-pyrido[2,1-a]isoquinoline * dihydrobromide]
- IC50 [1]: 71 ± 6.1 nM
- Selectivity index, LD50 HepG2 cells/IC50 parasites (HepG2 cells): 2.37
- LD50 (50% lethal dose), MTT assay (HepG2 cells): 168.07 ± 8.65 nM
- IC50 [2]: 0.146 µM

Compound: CCC1=C(C[C@@H]2NCCc3cc(OC)c(OC)cc32)C[C@H]2c3cc(OC)c(OC)cc3CCN2C1 [(−)-S,S-dehydroisoemetine, (S)-2-((S)-6,7-dimethoxy-1,2,3,4-tetrahydro-isoquinolin-1-ylmethyl)-3-ethyl-9,10-dimethoxy-1,6,7,11b-tetrahydro-4H-pyrido[2,1-a]isoquinoline * dihydrobromide]
- IC50 [1]: 2070 ± 260 nM
- Selectivity index, LD50 HepG2 cells/IC50 parasites (HepG2 cells): 0.69
- LD50 (50% lethal dose), MTT assay (HepG2 cells): 1429 ± 180 nM
- IC50 [2]: 1.03 µM
